Data reported in patent US8945856B2, “Affinity-based detection of biological targets” (priority 2005, dated 2015).

Legend:
botulinum toxoid A = botulinum toxoid A (Clostridium botulinum, UniProt P0DPI0); format: binding
Campylobacter sp. = assay: Array Biosensor binding to directly immobilized magainin; details: analogous conditions
[1] = tested on: heat-killed E. coli O157:H7 cells; assay: Array Biosensor direct assay: Cy5-labeled cells binding to immobilized magainin; details: magainin I covalently (directly) immobilized via GMBS
Bacillus sp. = assay: Array Biosensor binding to directly immobilized magainin; details: analogous conditions
[2] = tested on: heat-killed S. typhimurium cells; assay: Array Biosensor direct assay: Cy5-labeled cells binding to immobilized magainin
E. coli cells = details: total analysis time 2.5 hours; cited from earlier work
E. coli = format: binding
[3] = tested on: E. coli lipopolysaccharide (LPS); details: 5-minute competitive assays; cited from earlier work
Salmonella = format: binding
[4] = tested on: E. coli lipopolysaccharide (LPS); assay: Fiber optic biosensor 5-minute competitive assay with polymyxin B as capture molecule (James et al.); format: binding; details: assuming LPS monomer 4-20 kDa and 1.2×10^6 LPS molecules per cell

Chain of botulinum toxoid A (P0DPI0 whole entry, looked up): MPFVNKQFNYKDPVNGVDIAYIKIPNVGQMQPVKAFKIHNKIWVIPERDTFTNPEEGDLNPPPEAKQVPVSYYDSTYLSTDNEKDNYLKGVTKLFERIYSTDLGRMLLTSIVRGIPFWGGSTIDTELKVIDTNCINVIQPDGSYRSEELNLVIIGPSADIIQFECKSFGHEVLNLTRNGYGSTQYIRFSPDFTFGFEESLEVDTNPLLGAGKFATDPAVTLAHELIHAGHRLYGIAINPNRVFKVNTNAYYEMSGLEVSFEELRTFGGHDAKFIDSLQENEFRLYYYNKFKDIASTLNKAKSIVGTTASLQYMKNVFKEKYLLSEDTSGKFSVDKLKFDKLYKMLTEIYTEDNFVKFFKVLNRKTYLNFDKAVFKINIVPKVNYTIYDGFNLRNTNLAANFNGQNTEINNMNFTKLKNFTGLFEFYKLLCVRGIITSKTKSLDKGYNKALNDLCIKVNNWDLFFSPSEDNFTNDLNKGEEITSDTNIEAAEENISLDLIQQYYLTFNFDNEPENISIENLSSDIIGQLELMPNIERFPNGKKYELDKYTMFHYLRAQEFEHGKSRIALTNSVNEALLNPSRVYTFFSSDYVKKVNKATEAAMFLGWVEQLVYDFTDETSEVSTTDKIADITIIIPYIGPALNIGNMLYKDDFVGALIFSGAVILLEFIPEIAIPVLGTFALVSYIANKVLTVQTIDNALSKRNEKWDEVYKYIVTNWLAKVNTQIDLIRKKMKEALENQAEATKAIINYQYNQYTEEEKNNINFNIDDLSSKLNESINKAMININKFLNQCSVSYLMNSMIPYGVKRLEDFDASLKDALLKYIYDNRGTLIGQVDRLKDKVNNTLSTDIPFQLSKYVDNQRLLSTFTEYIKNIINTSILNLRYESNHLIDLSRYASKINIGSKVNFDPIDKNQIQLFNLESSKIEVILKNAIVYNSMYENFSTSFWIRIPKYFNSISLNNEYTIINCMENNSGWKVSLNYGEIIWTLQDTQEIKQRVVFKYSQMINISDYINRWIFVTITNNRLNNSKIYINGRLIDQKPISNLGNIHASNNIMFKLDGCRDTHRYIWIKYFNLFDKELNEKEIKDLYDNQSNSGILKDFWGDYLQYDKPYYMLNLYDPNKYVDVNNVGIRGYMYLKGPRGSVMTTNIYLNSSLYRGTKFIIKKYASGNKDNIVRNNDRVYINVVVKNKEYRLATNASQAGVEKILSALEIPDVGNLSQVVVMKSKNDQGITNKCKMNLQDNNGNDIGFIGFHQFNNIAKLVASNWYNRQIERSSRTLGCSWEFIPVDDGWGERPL

Substance: Magainin I (GIGKFLHSAGKFGKAFVGEIMKS; listed as Xenopus laevis)
- Binding of botulinum toxoid to immobilized capture species (botulinum toxoid A): not
- Binding of Campylobacter sp. (Campylobacter sp.): only trace binding
- Detection limit for labelled E. coli [1]: 1.6×10^5 cell/mL
- Binding of Bacillus sp. (Bacillus sp.): only trace binding
- Detection limit for labelled S. typhimurium ([2]; magainin I covalently (directly) immobilized via GMBS, Cy5-labeled heat-killed cells): 6.5×10^4 cell/mL
- Concentration in solution during immobilization step at which bacterial binding saturated ([2]; patterning solution, target bacteria): 0.4 mM

Substance: Cecropin P1 (SWLSKTAKKLENSAKKRISEGIAIAIQGGPR; Cecropin-P1; UniProt P14661 14-44, looked up)
- Detection limit for E. coli (E. coli cells): ~10^7 cfu/mL

Substance: Bactenecin
- LOD for E. coli (E. coli): 10^2-10^3 cfu/ml

Substance: Polymyxin B
- Binding of botulinum toxoid to immobilized capture species (botulinum toxoid A): less strongly
- Detection limit for E. coli LPS [3]: approx. 10 ng/mL
- LOD for Salmonella (Salmonella): 10^5 cfu/ml
- Detection limit calculated as number of bacteria per mL [4]: 3×10^5-1.3×10^6 cells/mL

Substance: Cecropin A (KWKLFKKIEKVGQNIRDGIIKAGPAVAVVGQATQIAK)
- Binding of botulinum toxoid to immobilized capture species (botulinum toxoid A): bound
- Estimated limit of detection compared with antibody-based assays (botulinum toxoid A): significantly lower
- Preferential binding, toxoid A versus toxoid B (botulinum toxoid A): bound preferentially by toxoid A
